These are literature values, as cited in patent US8278040B2, “Optically responsive and mechanically tunable colloid-in-liquid crystal gels” (priority 2008, dated 2012).

In the data set the test system is live cells.

Consider `CCCCCc1ccc(-c2ccc(C#N)cc2)cc1` [5CB, 4-cyano-4′-pentylbiphenyl], for which the “toxicity to living cells (stated)” value (general statement, criteria of Luk et al.) was “cytotoxic”. For the setting “placed into direct contact with live cells”, the “cell death on direct contact with live cells” value is “cause cell death within a short time period”.
